System: C1300 mouse neuroblastoma cells, Neuro-2a clone
Experiment: Neuritogenic activity (cells with neurites, optical microscopy)
Assay type: cell-based
Description: C1300 mouse neuroblastoma cells, Neuro-2a clone, (American Cell Type Culture Collection, Bethesda, Md.) were grown at a density of 10,000 cells/well in a culture medium containing Dulbecco's modified Eagle medium (DMEM, Flow), 10% fetal calf serum (FCS, batch IP 02, Seromed), penicillin (100 units per ml, Irvine), and L-glutamine (2 mM, Sigma). Cells were incubated at 37° C. for 24 hours, and medium was removed and substituted with 350 μl of fresh medium plus compounds to be tested.
Tested Compounds and Their Solubilization
Compounds ND35 and ND37 were solubilized at a concentration of 1×10^-2 M in dimethylsulfoxide (1% DMSO). For the different compounds, progressive dilutions in culture medium were performed (concentrations from 1×10^-5 to 1×10^-4 M).
Neuritogenic activity (cell number with neurites, optical microscopy)
Culture plates were incubated with compounds to be tested and analyzed using a phase contrast microscope (250×). Nine fields with prefixed coordinates were chosen and photographed. Then the total number of cells and those with neurites (length at least double the cell diameter) were counted in blind in each photograph. The percentage of cells with neurites was determined after counting of at least 100 cells (Facci L. et al.: Promotion of neuritogenesis in mouse neuroblastoma cells by exogenous ganglioside GM1. J. Neurochem. Raven Press, New York, 299-305,1984).

## CCCCCCCCCCCCCCCC(=O)NC1C(O)CC(OCC)(C(=O)NCCCN(C)C)OC1C(O)C(O)CO (centres unmarked) [ND35, 2-ethylglycoside of N-palmitoyl-neuraminic acid dimethylaminopropylamide]
1 × 10^-4 M
  Cells with neurities (%): 39 ± 7%
1 × 10^-5 M
  Cells with neurities (%): 7 ± 2%
1×10^-5 to 1×10^-4 M
  neuritogenesis in vitro: induce neuritogenesis
2.5 × 10^-5 M
  Cells with neurities (%): 7 ± 3%
5 × 10^-5 M
  Cells with neurities (%): 28 ± 7%

Source: patent US5677285A, “Derivatives of neuraminic acid” (Fidia S.P.A., priority 1992, dated 1997)
